Laboratory results reported in ChEMBL document CHEMBL1149116, “2-Anilino-4-(thiazol-5-yl)pyrimidine CDK inhibitors: synthesis, SAR analysis, X-ray crystallography, and biological activity” (J Med Chem, 2004).

Legend:
[1] = molecular target: Cyclin-dependent kinase 2 (Homo sapiens, UniProt P24941)
[2] = molecular target: Cyclin-dependent kinase 4 (Homo sapiens, UniProt P11802)
Chain of Cyclin-dependent kinase 4 (P11802 whole entry): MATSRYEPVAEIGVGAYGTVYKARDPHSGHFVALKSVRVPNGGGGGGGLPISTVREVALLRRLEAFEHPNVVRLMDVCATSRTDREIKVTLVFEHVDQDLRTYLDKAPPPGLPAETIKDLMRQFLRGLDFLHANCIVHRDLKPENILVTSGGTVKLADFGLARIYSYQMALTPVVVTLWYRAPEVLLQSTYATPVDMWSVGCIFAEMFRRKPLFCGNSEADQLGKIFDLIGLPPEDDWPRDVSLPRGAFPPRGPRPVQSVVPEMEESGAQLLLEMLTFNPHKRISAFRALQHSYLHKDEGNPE
Description: Inhibitory activity against human CDK4 (Cyclin dependent kinase 4)

| Ki [1] [µM] | Ki [2] [µM] | Structure (SMILES) |
| --- | --- | --- |
| 0.08 | 2.6 | Cc1nc(C)c(-c2ccnc(Nc3ccccc3)n2)s1 |
| > 10 | > 20 | CCNc1nc(C)c(-c2ccnc(Nc3cccc(O)c3)n2)s1 |
| 1.2 | 1.2 | Cc1nc(C)c(-c2ccnc(Nc3ccccc3F)n2)s1 |
| > 20 | > 20 | Cc1nc(C)c(-c2ccnc(N(C)c3cccc([N+](=O)[O-])c3)n2)s1 |
| > 20 | > 20 | Cc1nc(-c2ccccn2)sc1-c1ccnc(Nc2cccc([N+](=O)[O-])c2)n1 |
| 0.03 | 0.32 | Cc1nc(N)sc1-c1ccnc(Nc2ccc(O)cc2)n1 |
| 0.1 | 0.9 | Cc1nc(C)c(-c2ccnc(Nc3cccc(F)c3)n2)s1 |
| > 20 | > 20 | Cc1nc(C)c(-c2ccnc(N(C)C)n2)s1 |
| > 20 | > 20 | Cc1nc(C)c(-c2ccnc(Nc3ccccc3Cl)n2)s1 |
| 0.11 | 0.37 | CNc1nc(C)c(-c2ccnc(Nc3cccc(O)c3)n2)s1 |
| 0.14 | 0.32 | Cc1nc(C)c(-c2ccnc(Nc3ccc(O)cc3)n2)s1 |
| 0.67 | 9.4 | Cc1nc(C)c(-c2ccnc(Nc3cccc(Cl)c3)n2)s1 |
| 2.5 | > 20 | Cc1nc(C)c(-c2ccnc(Nc3ccc(Cl)cc3)n2)s1 |
| 0.06 | 5.3 | Cc1nc(N(C)C)sc1-c1ccnc(Nc2cccc([N+](=O)[O-])c2)n1 |
| 0.8 | 1.6 | CNc1nc(C)c(-c2ccnc(Nc3cccc([N+](=O)[O-])c3)n2)s1 |
| > 20 | > 20 | CNc1nccc(-c2sc(C)nc2C)n1 |
| 0.3 | 0.48 | Cc1nc(C)c(-c2ccnc(Nc3cccc(C#N)c3)n2)s1 |
| > 20 | > 20 | Cc1nc(C)c(-c2ccnc(Nc3cccc(C(F)(F)F)c3)n2)s1 |
|  | 16 | Cc1nc(C)c(-c2ccnc(N)n2)s1 |
| 0.4 | 10.6 | Cc1nc(C)c(-c2ccnc(Nc3cccc(N)c3)n2)s1 |
| 4.1 | > 20 | Cc1nc(C)c(-c2ccnc(Nc3ccc([N+](=O)[O-])cc3)n2)s1 |
| > 20 | > 20 | Cc1nc(C)c(-c2ccnc(Nc3ccccc3C(F)(F)F)n2)s1 |
